Measurements from ChEMBL document CHEMBL5728572, “Thiadiazole IRAK4 compounds” (2021).

Biological target: T1, Interleukin-1 receptor-associated kinase 4 (Homo sapiens, UniProt Q9NWZ3)
T1 sequence (Q9NWZ3 whole entry): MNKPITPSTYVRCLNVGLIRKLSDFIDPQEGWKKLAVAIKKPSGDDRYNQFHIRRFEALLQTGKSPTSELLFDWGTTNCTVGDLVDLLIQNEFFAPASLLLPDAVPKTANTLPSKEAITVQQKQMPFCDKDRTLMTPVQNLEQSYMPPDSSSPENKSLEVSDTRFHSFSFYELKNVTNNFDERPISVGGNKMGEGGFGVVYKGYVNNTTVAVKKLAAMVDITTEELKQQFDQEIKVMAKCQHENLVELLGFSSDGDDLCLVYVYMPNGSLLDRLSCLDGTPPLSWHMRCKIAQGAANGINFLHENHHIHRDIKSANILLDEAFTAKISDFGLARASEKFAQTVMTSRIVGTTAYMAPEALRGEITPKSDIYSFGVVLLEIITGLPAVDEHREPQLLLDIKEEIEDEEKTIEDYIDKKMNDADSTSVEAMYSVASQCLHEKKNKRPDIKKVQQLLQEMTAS
Experiment: IRAK4 Biochemical Assay: IRAK4 enzyme (Carna Biosciences, Chuo-ku, Kobe, Japan) activity was measured by detecting phosphorylated peptide substrate formation using an antibody against the phosphorylated peptide substrate. This is a time-resolved fluorescence resonance energy transfer (TR-FRET) immunoassay, based on the STK1 KinEASE Assay (Cisbio, Bedford, Mass.). The assay was designed as a simple two-step, endpoint assay (a 5 μl enzyme reaction followed by 5 μl stop and detect Solution) performed in ProxiPlate-384 Plus plates (Perkin Elmer, Waltham, Mass.). Staurosporine, a non-selective kinase inhibitor was used as a positive control. Compounds diluted in DMSO were spotted into 384 well plates using a Labcyte® Echo 550 Liquid Handling System prior to addition of IRAK4 enzyme and peptide substrate. Reaction solutions were delivered using a Multi-Flo (Bio-Tek Instruments). The enzyme and peptide solution was incubated with compound for 15 minutes at room temp before the reaction was initiated by the addition of ATP. The standard 5 μl reaction mixture contained 500 μM ATP, […] (STK1 Peptide), 0.75 nM of IRAK4 in reaction buffer (50 mM HEPES, pH 7.0, 0.02% NaN3, 0.01% BSA, 0.1 mM Orthovanadate, 5 mM […], 0.025% NP-40, 1 mM DTT). […]

IC50: 1.8 nM
SMILES: CC(C)Nc1cc(-c2ccc3cc(C#N)cnn23)ncc1-c1nnc(N2CCCC2)s1
